Entries after “also recorded” stand apart in the source; their conditions may differ.
Assays:
MSCC cells = experiment: Dose-response curves with kinase inhibitors, CellTiterGlo viability, MSCC cells; format: cell-based, murine; conditions: for IC50: Mus musculus
Protocol: (§1) Kinase inhibition dose response curves were performed with six kinase inhibitors (MK-1775 (a.k.a., […]), TAE684, PI828, PIK93, PP2, PF-562271) against kinase targets (WEE1, ALK, PI3K, PIK4CB, FYN, FAK (ILK surrogate)), respectively. Kinase inhibitors: MK-1775 (S1525), PIK93 (S1489), TAE684 (S1108) were obtained from Selleck Chemicals (Houston, Tex.); PI828 (2814), PP2 (1407) from Tocris Bioscience (Mpls, Minn.), and PF-562271 from Synkinase (San Diego, Calif.). All HNSCC (UMSCC-17A, UM-SCC47A, PCI-15A, PCI-15B, UM-SCC14A, UM-SCC14C) and MSCC (CK1: p53+/+ and CK4: p53−/−) cells were plated at ˜5-10×10^3 cells/100 μl per well, and incubated at 37° C. for ˜24 hours on 96-well assay plates (Corning Inc.). Serial dilutions of the kinase inhibitors and vehicle control (DMSO) were prepared in 1 mL assay blocks at 3× working concentration to generate dose-response curves ranging from 100 μM to 0.03 μM. All serial dilutions were prepared using cell culture media. Approximately 72 hours post-treatment, cells were assessed for metabolic activity via ATP using CellTiterGlo (Promega), following the protocol outlined by the manufacturer utilizing an FLx800, and/or a Synergy H4 Hybrid multi-mode reader (Biotek). All assays were performed in triplicate and normalized to wells with no treatment. Dose-response curves and IC50 values were generated using GraphPad Prism Version 5 (Parameters: nonlinear regression fit; equation=log (inhibitor) vs. response−variable slope (four parameters); single constraint).

HNSCC cells [1] = experiment: Dose-response curves with kinase inhibitors, CellTiterGlo viability, HNSCC cells; format: cell-based, human; conditions: for IC50: Homo sapiens; for effect on viability of p53 mutant HNSCC cells: autologous pairs UMSCC-14A, UMSCC-14C, PCI-15A, PCI-15B, result in words
Protocol: as §1

[2] = tested on: HNSCC cells (PCI-15B, UMSCC-17A); experiment: Mitotic entry and cell cycle analysis by flow cytometry; format: cell-based, human; conditions: for mitotic entry, phospho-histone H3 (serine 10): 1 μM
Protocol: (§2) Mitotic entry was assessed as previously described (Aarts, M. et al, Cancer Discov 2012; 2:524-39). Briefly, HNSCC cells (PCI-15B, UMSCC-17A) were treated with 1 μM MK-1775 for 8 and 24 hours, and all cells were harvested, washed, and incubated with rabbit monoclonal antibody to phospho-histone H3 (Serine10) (Cell Signaling Technology, Cat. No. 3465, Danvers, Mass.) for 2 hours at RT, washed, and DNA stained with 20 μg/ml propidium iodide, RNaseA in PBS (Sigma-Aldrich; Cat. Nos. P4170, R6513). Flow cytometric analysis was performed utilizing a BD FACS Canto II, and profiles analyzed with BD Cell Quest software (Becton Dickinson, CA). Caspase-3/7 dependent apoptosis was assessed as per protocol (Promega, Cat. No. G8091) utilizing a SynergyH4 Hybrid Reader (Biotek, VT). AUCs were calculated for all treatments and vehicle (DMSO) for all cell lines utilizing two measurements over a 48-hour period with three concentrations (30 nm, 100 nm, 1 μM) of MK-1775.

HNSCC cells [3] = experiment: Caspase-3/7 dependent apoptosis assay; format: cell-based, human; conditions: p53 mutant cells
Protocol: as §2

PCI-15B xenografts = experiment: Xenograft tumor model; format: in vivo, mice
WEE1 = experiment: Immunoblotting of xenograft tumor lysates; format: in vivo; conditions: oral MK-1775 treated mice vs vehicle
Description: Tumor tissues were minced and homogenized on ice in M-PER Mammalian Protein Extraction Reagent supplemented with Halt Protease and Phosphatase Inhibitor Cocktail (Thermo Fisher Scientific). Extracted proteins were quantified by a BCA protein assay (Thermo Fisher Scientific). […] Anti-WEE1 (Cat. No. 4936), anti-phospho-WEE1 ([…]) (Cat. No. 4910), anti-CDC2 (Cat. No. 9112), and anti-phospho-CDC2 (Tyr15) (Cat. No. 4539) antibodies were purchased from Cell Signaling Technology (Danvers, Mass.). The secondary antibodies used were ZyMaxTM horseradish peroxidase (HRP) conjugated goat-anti-rabbit IgG (Life Technologies). HRP was detected with SuperSignal West Pico Chemiluminescent Substrate kit (Thermo Fisher Scientific).

[4] = parameters: species or system mice; conditions: mouse, in vivo
Protocol: PCI-15B cells were inoculated subcutaneously into the right flanks of 28 eight-week old NOD/SCID IL2 gamma null mice (NSG) provided by the Olson laboratory at the Fred Hutchinson Cancer Research Center. When tumors reached a palpable mass of >50 mm^3, mice were randomly assigned into four treatment groups of seven mice each and all measurements and treatment regimens were carried out using a double-blind protocol. The WEE1 inhibitor MK-1775 (S1525-Selleck Chemicals, Houston, Tex.) was delivered by oral gavage (30 mg/kg) twice per week for 4 weeks in dimethylsulfoxide in 0.5% methylcellulose (M0512, Sigma Aldrich) in a 1:14 suspension. Cisplatin (P4394, cis-diammineplatinum (II) dichloride, Sigma Aldrich) was delivered via intra-peritoneal injection (4.0 mg/kg) once a week for 4 weeks. The volume of the implanted tumor was measured weekly with calipers and tumor volumes calculated using the formula: V=L×W^2/2; in which V, volume (mm^3); L, largest diameter (mm); W, smallest diameter (mm). All animal protocols were approved by the Fred Hutchinson Cancer Research Center Laboratory Animal Care and Use Committee.

[5] = p53−/− (p53 deficient) MSCC cells

What does the source list for `NC(=O)Nc1cc(-c2cccc(F)c2)sc1C(=O)N[C@H]1CCCNC1` [AZD7762]?
IC50 (MSCC cells; p53 wild type MSCC cells): 2.2 µM; IC50 (MSCC cells; [5]): 0.13 µM

For `C=CCn1c(=O)c2cnc(Nc3ccc(N4CCN(C)CC4)cc3)nc2n1-c1cccc(C(C)(C)O)n1` [MK-1775], which IC50 (HNSCC cells [1]; UMSCC14A, p53 mutant UMSCC-14A and UMSCC-14C cells and p53 wild type UMSCC-47 cells (intermediate)) is on record?
Its IC50 is 0.58 to 1.1 µM.

And the IC50 (HNSCC cells [1]; p53 mutant PCI-15A and PCI-15B HNSCC cells)?
The IC50 was 0.14 to 0.17 µM.

And the IC50 (HNSCC cells [1]; p53 wild type UMSCC-17A cells)?
The IC50 was 4.5 µM.

What about the “effect on viability of p53 mutant HNSCC cells” value (from here on “effect on viability”) (HNSCC cells [1]) of the same molecule?
Its value is “sensitive; also recorded: impairs viability”.

And the IC50 (MSCC cells; p53 wild type MSCC cells)?
Its IC50 is 4.5 µM.

What about the IC50 (MSCC cells; [5]) of the same molecule?
Its IC50 is 0.22 µM.

What about the “IC50 lower in p53−/− MSCC cells compared to p53 wild type cells” value (MSCC cells; p53−/− vs p53 wild type MSCC) of the same molecule?
The value was 20 fold.

What about the “4N DNA content” value ([2]; p53 mutant cells) of the same molecule?
The value was “loss”.

What about the “subG1 DNA content” value ([2]; p53 mutant cells) of the same molecule?
Its value is “increase”.

And the “mitotic entry, phospho-histone H3 (serine 10)” value ([2]; p53 mutant cells (PCI-15B))?
Its value is “unscheduled mitotic entry”.

What about the “mitotic entry, phospho-histone H3 (serine 10)” value ([2]; p53 wild type cells (UMSCC-17A)) of the same molecule?
Its value is “not”.

And the “apoptotic marker caspase 3/7” value (HNSCC cells [3])?
The value was “activation”.

And the “inhibition of growth of HNSCC tumors as compared to vehicle” value (PCI-15B xenografts; 30 mg/kg oral gavage twice weekly, 4-week protocol)?
Its value is 66%.

And the “phosphorylation of WEE1 in tumor lysates” value (WEE1)?
Its value is “reduced phosphorylation”.

What about the “phosphorylation of WEE1 substrate CDC2 in tumor lysates” value (WEE1) of the same molecule?
Its value is “reduced phosphorylation”.

And the “tolerability of dosing regime” value [4]?
The value was “well-tolerated”.

Which “effect on viability” value (HNSCC cells [1]) does the source give for `CC(=O)Nc1nc(C)c(-c2ccc(Cl)c(S(=O)(=O)NCCO)c2)s1` [PIK93] here?
The value was “sensitive; also recorded: impairs viability”.

For `N.N.[Cl][Pt][Cl]` [cisplatin, cis-diammineplatinum (II) dichloride], which “tumor regression (reduction)” value (PCI-15B xenografts; cisplatin 4.0 mg/kg i.p. once a week, 4 weeks, MK-1775 given 24 hours after cisplatin) is on record?
Its value is 60%.

With `CC(C)(C)n1nc(-c2ccc(Cl)cc2)c2c(N)ncnc21` [PP2] as the molecule, how does the “effect on viability” value (HNSCC cells [1]) read?
Its value is “impairs viability”.

With `CN(c1ncccc1CNc1nc(Nc2ccc3c(c2)CC(=O)N3)ncc1C(F)(F)F)S(C)(=O)=O` [PF-562271] as the molecule, how does the “effect on viability” value (HNSCC cells [1]) read?
The value was “sensitive; also recorded: impairs viability”.

With `Nc1ccc(-c2cccc3c(=O)cc(N4CCOCC4)oc23)cc1` [PI828] as the molecule, how does the “effect on viability” value (HNSCC cells [1]) read?
The value was “impairs viability”.

Which “effect on viability” value (HNSCC cells [1]) does the source give for `COc1cc(N2CCC(N3CCN(C)CC3)CC2)ccc1Nc1ncc(Cl)c(Nc2ccccc2S(=O)(=O)C(C)C)n1` [TAE684] here?
Its value is “sensitive; also recorded: impairs viability”.
